Experimental data: ChEMBL document CHEMBL1154198, “Chemical genetics of Plasmodium falciparum” (Nature, 2010)

Experiments:
[1] = system: Plasmodium falciparum; experiment: ST_JUDE: Plasmodium falciparum 3D7 EC50 (uM) as measured by SYBR green dye; type: functional, organism-based
[2] = system: Plasmodium falciparum; experiment: ST_JUDE: Plasmodium falciparum K1 EC50 (uM) as measured by SYBR green dye; type: functional, organism-based

Row | Structure (SMILES) | EC50 [1] [µM] | EC50 [2] [µM]
1 | COc1ccc(-c2cc(=O)oc3c4c(ccc23)OCN(Cc2ccc(F)cc2)C4)cc1 | 5.21 | 1.06
2 | COc1ccc2sc(N(Cc3cccnc3)C(=O)c3ccc(F)cc3)nc2c1 | > 15 | 1.49
3 | N#Cc1ccc(Cn2c(=O)n(CCCC(=O)NCc3ccccc3)c(=O)c3sccc32)cc1 | > 15 | > 15
4 | Oc1cccc2ccc(/C=C/c3ccccc3Br)nc12 | > 15 | 9.71
5 | CC(C)C(=O)N1CCOc2c(cc(-c3csc4ccccc34)cc2OCCc2ccccn2)C1 | > 15 | 4.48
6 | O=C(Nc1nc(-c2ccccn2)cs1)c1ccccc1[N+](=O)[O-] | 4.99 | 6.94
7 | CCCCCOc1ccc(NC2=C(N3CCCC3)C(=O)c3ccccc3C2=O)cc1 | > 15 | 1.92
8 | CN(C)c1ccc(-c2n(C)c3ccccc3[n+]2C)cc1 | > 15 | 4.36
9 | CCN(CC)CCNC(=O)c1ccc2c(c1)sc1nc(-c3ccc(F)cc3)cn12 | 0.974 | 1.92
10 | COC(=O)c1ccc(NC(=O)CN(Cc2ccc(Cl)cc2)S(=O)(=O)c2ccccc2)cc1 | 7.32 | 5.1
11 | O=C(c1ccco1)N(Cc1ccccc1)c1cccc([N+](=O)[O-])c1 | > 15 | > 15
12 | CCOc1cc(C2C3=C(O)CC(c4ccc(OC)cc4)CC3=NC(C)=C2C(=O)OC)ccc1O (stereo not drawn) | > 15 | 5.36
13 | O=C(N/N=C/c1nc2ccccc2[nH]1)c1cccc(Cl)c1 | 1.65 | > 15
14 | Cc1ccc2ccc(C(Nc3ccccn3)c3cccc(Br)c3)c(O)c2n1 (stereo not drawn) | > 15 | 4.78
15 | CCCCCCCCn1ccc(=N)cc1 | 2.18 | 1.41
16 | COC(=O)C1=CNC=C(C(=O)OC)C1c1ccc(Cl)c([N+](=O)[O-])c1 | 0.62 | 0.744
17 | CCCCn1c(N)c(C#N)c2nc3ccccc3nc21 | 1.52 | 6.01
18 | CC(=O)C1=C(C)NC(SCC(=O)c2cccc([N+](=O)[O-])c2)=C(C#N)C1c1ccc(Cl)cc1 (stereo not drawn) | > 15 | 6.73
19 | CCS(=O)(=O)c1ccccc1C(=O)Nc1nc(-c2ccccn2)cs1 | 6.53 | 5.14
20 | CCCCCn1c(=O)c2c(nc3n(-c4ccccc4OCC)c(C)cn23)n(C)c1=O | > 15 | > 15
21 | CC(=O)Oc1ccccc1C(=O)Nc1cccc(C(F)(F)F)c1 | 2.72 | 2.66
22 | CCOC(=O)c1ccc2nc(C)cc(Nc3ccc(C)c(Cl)c3)c2c1 | 1.9 | > 15

Row | Structure (SMILES) | EC50 [1] [µM] | EC50 [2] [µM]
23 | CCCO/C(O)=C1\C(C)=NC2=C(C(=O)CC(c3ccccc3)C2)C1c1cc(Cl)c(O)c(OC)c1 (stereo not drawn) | 3.35 | 2.88
24 | CC(C(=O)c1ccc(-c2ccccc2)cc1)[n+]1ccccc1 (stereo not drawn) | 7.02 | 4
25 | CC[n+]1c(C=C2C=CN(C)C=C2)ccc2cc(OC)ccc21 | > 15 | 2.05
26 | CN(C)CCNCCCOc1ccc(Cl)cc1Cc1ccccc1 | 5.82 | > 15
27 | CC(C)N1CCN(Cc2ccc(C#CC(C)(C)O)cc2)CC1CCO (stereo not drawn) | > 15 | > 15
28 | CSc1cccc(NC(=O)Cn2c(=O)sc3ccccc32)c1 | > 15 | > 15
29 | COC(=O)C1=CNC=C(C(=O)OC)C1c1ccc(F)c(F)c1 | 8.04 | > 15
30 | Cc1ccc(CNC(=O)/C=C/c2ccc([N+](=O)[O-])cc2)cc1 | > 15 | > 15
31 | CCCCNC(=S)NCCc1c(C)[nH]c2ccccc12 | > 15 | > 15
32 | CCOC(=O)c1cnc2ccc(OC)cc2c1NCCCN1CCOCC1 | 5.94 | 4.38
33 | CCOC(=O)c1cnc2ccc(OC)cc2c1NCc1ccccc1 | 2.77 | > 15
34 | COc1ccc(-c2nn(C)c3sc(C(=O)Nc4cccc(Cl)c4)cc23)cc1OC | > 15 | 6.94
35 | CC(=O)NC(c1cccs1)c1cc(Cl)c2cccnc2c1O (stereo not drawn) | > 15 | 5.89
36 | Cc1cc(C)c2nc(NC(=O)CSc3ccc(F)cc3)sc2c1 | > 15 | > 15
37 | Cc1cc(O)nc(-n2nc(C)cc2NC(=O)c2cccc(C(F)(F)F)c2)n1 | > 15 | 1.5
38 | Cc1nc2c3cc(F)ccc3n(C)c2s1 | > 15 | > 15
39 | CCOc1ccc(S(=O)(=O)NC2=C/C(=N\c3ccc(O)cc3)C(=O)c3ccccc32)cc1 | 1.25 | 1.03
40 | COc1ccc(CN2CCN(Cc3ccccc3)CC2)c(O)c1 | 1.09 | 0.754
41 | C=CC[n+]1c(/C=C2\C=CC=CN2CC)ccc2cc(C)ccc21 | 2.56 | 2.53
42 | CCOC(=O)C1=C(Nc2ccc(Cl)cc2)S/C(=C\c2cccc(OC)c2O)C1=O | > 15 | 4
43 | CCOC(=O)C1=C(c2ccccc2)N=C(S)NC1c1cc(Cl)ccc1OC (stereo not drawn) | > 15 | > 15
44 | C[n+]1ccccc1/C=C/c1ccc(O)cc1 | 3.18 | 3.28
